Tests used:
Cdk9/cyclin T1 = Cdk9/cyclin T1 (Homo sapiens, UniProt P50750); conditions: CDK 9/Cyclin T (McClue et al., 2002); cited from earlier work
MDN = test: Induction of apoptosis by apo2.7 immunostaining; format: cell-based, human
From the text: (§1) The induction of apoptosis at day 3 by apo2.7 was investigated by immunostaining.

XG-1 = test: Induction of apoptosis by apo2.7 immunostaining; format: cell-based, human
From the text: as §1

XG-6 = test: Induction of apoptosis by apo2.7 immunostaining; format: cell-based, human
From the text: as §1

[1] = system: myeloma cell population (high expression of CD38); test: Apoptosis in cells taken from a multiple myeloma patient (ex vivo); format: cell-based, human; parameters: dose or concentration left out as unconfirmed; conditions: […] μM CYC202, day 2, patient cells ex vivo
From the text: (§2) Myeloma cells were identified by their high expression of CD38.
(§3) Myeloma cells were identified by their high expression of CD38. The number of apoptotic cells in the myeloma cell population was of 46% whereas only 4% of the non myeloma cell population was induced on apoptosis.

[2] = system: non myeloma cell population; test: as above; format: cell-based, human; parameters: dose or concentration left out as unconfirmed; conditions: […] μM CYC202, day 2, patient cells ex vivo
From the text: as §2, §3

[3] = system: multiple myeloma cell lines; test: Apoptosis by TUNEL, flow cytometry; format: cell-based; conditions: 30 μM CYC202
Protocol: All cell lines were obtained from the DSMZ (Deutsche Sammlung von Mikroorganismen und Zellkulturen).
Cells were seeded onto 90 mm diameter plates. […] Cells were harvested at various time points after addition of the drug. After washing once in PBS, cells were fixed in ice-cold 70% v/v ethanol and stored for up to 2 weeks at −20° C. Cells were washed twice in PBS +1% w/v BSA to remove fixative and re-suspended in PBS containing 50 μg/ml propidium iodide and 50 μg/ml RnaseA. After incubation at room temperature for 20 min, cells were analysed using flow cytometry.
A Becton Dickinson LSR flow cytometer was used for these studies, in accordance with the manufacturers recommendations. […] Red fluorescence (575±26 nm) was acquired on a linear scale and pulse width analysis was used to exclude cell doublets and aggregates from the analysis. Cells with a DNA content of between 2 n and 4 n were designated as being in G1, S or G2/M phases of the cell cycle, as defined by the level of red fluorescence. […] The number of cells in each cell cycle compartment was expressed as a percentage of the total number of cells present. Analysis of apoptosis was determined using terminal deoxynucleotidyltransferase dUTP nick end labelling (TUNEL) using the APO-DIRECT kit from BD biosciences (catalog number 556381) according to the manufacturer's instructions.

Mcl-1 [4] = test: Western blot, Mcl-1 protein levels in myeloma cell lines; format: cell-based
Mcl-1 mRNA = test: Real time PCR of Mcl-1 mRNA in LP-1 cells; format: cell-based; conditions: normalised to 28S rRNA
Hdm2 = test: Western blot, Hdm2 levels in myeloma cells; format: cell-based
Mcl-1 [5] = test: Western blotting of Mcl-1 expression, MDN cells; format: cell-based, human
From the text: (§4) The downregulation of Mcl-1 preceded the induction of apoptosis.

Mcl-1 [6] = test: Western blotting of Mcl-1 expression, XG-1 cells; format: cell-based, human; conditions: XG-1, 30 μM, seven hours
From the text: as §4

Mcl-1 [7] = test: Western blotting of Mcl-1 expression, XG-6 cells; format: cell-based, human; conditions: XG-6, 30 μM, seven hours
From the text: as §4

RNA polII on Ser-2 [8] = test: Western blotting of RNA pol II phosphorylation, MDN cells; format: cell-based, human; conditions: 30 μM, seven hours
From the text: as §4

RNA polII on Ser-2 [9] = test: Western blotting of RNA pol II phosphorylation, XG-1 cells; format: cell-based, human; conditions: XG-1, 30 μM, seven hours
From the text: as §4

RNA polII on Ser-2 [10] = test: Western blotting of RNA pol II phosphorylation, XG-6 cells; format: cell-based, human; conditions: XG-6, 30 μM, seven hours
From the text: as §4

[11] = system: RNA polymerase II at the serine 2 position of the CTD; test: Western blot, RNA polymerase II CTD phosphorylation in LP-1 cells; conditions: 30 μM CYC202
CTD of RNA polymerase II = test: Western blot, phosphorylation of CTD of RNA polymerase II in myeloma cells; format: cell-based; conditions: 60 mM DRB
From the text: Arrow indicates cleaved form indicative of apoptosis.

Chain of Cdk9/cyclin T1 (P50750 whole entry, species assumed): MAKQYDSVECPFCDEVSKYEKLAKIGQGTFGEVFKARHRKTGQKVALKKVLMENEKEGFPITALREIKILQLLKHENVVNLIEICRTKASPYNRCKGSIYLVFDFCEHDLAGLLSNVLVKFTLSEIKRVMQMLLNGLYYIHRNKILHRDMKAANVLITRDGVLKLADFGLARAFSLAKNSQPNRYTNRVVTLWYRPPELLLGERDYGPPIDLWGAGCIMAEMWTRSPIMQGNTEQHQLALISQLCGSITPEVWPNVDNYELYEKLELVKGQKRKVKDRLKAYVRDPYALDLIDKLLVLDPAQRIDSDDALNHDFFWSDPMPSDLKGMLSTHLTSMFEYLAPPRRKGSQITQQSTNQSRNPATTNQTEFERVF
Chain of Cdk9/cyclin T1 (O60563 whole entry partner, species assumed): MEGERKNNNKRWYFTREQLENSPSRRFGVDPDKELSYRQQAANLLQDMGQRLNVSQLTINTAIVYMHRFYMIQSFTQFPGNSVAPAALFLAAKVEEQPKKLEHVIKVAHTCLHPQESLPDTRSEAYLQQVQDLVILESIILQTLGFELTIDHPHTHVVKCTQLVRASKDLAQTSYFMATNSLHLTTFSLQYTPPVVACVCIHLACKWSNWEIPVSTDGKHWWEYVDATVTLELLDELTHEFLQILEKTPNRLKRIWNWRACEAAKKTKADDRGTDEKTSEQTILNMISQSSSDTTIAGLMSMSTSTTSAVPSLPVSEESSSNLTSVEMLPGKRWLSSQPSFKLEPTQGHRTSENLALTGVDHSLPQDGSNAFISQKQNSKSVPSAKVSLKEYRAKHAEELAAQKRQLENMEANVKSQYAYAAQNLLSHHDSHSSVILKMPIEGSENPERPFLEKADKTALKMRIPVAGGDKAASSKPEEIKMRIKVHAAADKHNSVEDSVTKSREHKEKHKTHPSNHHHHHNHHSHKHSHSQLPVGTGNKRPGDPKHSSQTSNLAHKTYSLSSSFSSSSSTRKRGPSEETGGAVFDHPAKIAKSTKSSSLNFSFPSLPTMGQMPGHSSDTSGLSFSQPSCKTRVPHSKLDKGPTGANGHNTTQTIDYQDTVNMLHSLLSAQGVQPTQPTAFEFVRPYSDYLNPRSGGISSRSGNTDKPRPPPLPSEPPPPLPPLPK

CC[C@H](CO)Nc1nc(NCc2ccccc2)c2ncn(C(C)C)c2n1 (racemic) [roscovitine, 2-[(1-ethyl-2-hydroxyethyl)amino]-6-benzylamine-9-isopropylpurine]
inhibition in vitro (Cdk9/cyclin T1): low μM concentrations

CC[C@H](CO)Nc1nc(NCc2ccccc2)c2ncn(C(C)C)c2n1 (single isomer, unassigned) [CYC202, 2-(1-R-hydroxymethylpropylamino)-6-benzylamino-9-isopurine]
% of apoptotic cells after 3 day treatment (MDN; 3 μM): 3% | % of apoptotic cells after 3 day treatment (MDN; 6 μM): 5% | % of apoptotic cells after 3 day treatment (MDN; 12 μM): 41% | induction of apoptosis at day 3 (apo2.7) (MDN; 12 μM): significant and strong induction of apoptosis | induction of apoptosis at day 3 (apo2.7) (XG-1; XG1, 30 μM): significant and strong induction of apoptosis | % of apoptotic cells after 3 day treatment (XG-1; XG-1, 7.5 μM): 2% | % of apoptotic cells after 3 day treatment (XG-1; XG-1, 30 μM): 70% | % of apoptotic cells after 3 day treatment (XG-1; XG-1, […] μM): 18% | % of apoptotic cells after 3 day treatment (XG-6; XG-6, 7.5 μM): 4% | % of apoptotic cells after 3 day treatment (XG-6; XG-6, 30 μM): 74% | induction of apoptosis at day 3 (apo2.7) (XG-6; XG-6, 30 μM): significant and strong induction of apoptosis | % of apoptotic cells after 3 day treatment (XG-6; XG-6, […] μM): 15% | number of apoptotic cells in the myeloma cell population [1]: 46% | non myeloma cell population induced on apoptosis [2]: 4% | induction of apoptosis (TUNEL) [3]: rapid apoptosis seen in the majority of cells by eight hours | levels of Mcl-1 protein (Mcl-1 [4]; all cell lines studied, CYC202 treatment): rapidly reduced in all cell lines, by three hours | levels of Mcl-1 mRNA by real-time PCR (Mcl-1 mRNA): reduced | levels of Hdm2 (Hdm2; myeloma cell lines, CYC202 treatment): also reduced | Mcl-1 expression (Mcl-1 [5]; 30 μM of CYC202, seven hours): total downregulation of Mcl-1 | Mcl-1 expression (Mcl-1 [5]; 6 or […] μM of CYC202, seven hours): decrease of Mcl-1 expression | Mcl-1 expression (Mcl-1 [6]): strong downregulation of Mcl-1 | Mcl-1 expression (Mcl-1 [7]): strong downregulation of Mcl-1 | phosphorylation of RNA polII on Ser-2 (RNA polII on Ser-2 [8]): total downregulation | phosphorylation of RNA polII on Ser-2 (RNA polII on Ser-2 [9]): total downregulation | phosphorylation of RNA polII on Ser-2 (RNA polII on Ser-2 [10]): total downregulation | dephosphorylation of RNA polymerase II at serine 2 of the CTD [11]: rapid dephosphorylation of RNA polymerase II at the serine 2 position of the CTD of RNA pol II, by one and a half hours

OC[C@H]1O[C@@H](n2cnc3cc(Cl)c(Cl)cc32)[C@H](O)[C@@H]1O [DRB, reference compound]
Mcl-1 levels (Mcl-1 [4]; myeloma cells, 60 mM DRB): down regulates | Hdm2 levels (Hdm2; myeloma cells, 60 mM DRB): down regulates | phosphorylation of the CTD of RNA polymerase II (CTD of RNA polymerase II): inhibits phosphorylation
